Source: patent US10842758B1, “Transdermal penetrant formulations containing cannabidiol” (AMPERSAND BIOPHARMACEUTICALS, INC., priority 2019, dated 2020)

Assay: Plasma pharmacokinetic profile of cannabidiol after a single topical dose (In-life Study 1901002-01, LC-MS/MS)
Format: in vivo, CD-1 mice
Settings: CD-1, topical or ocular, single topical dose 0.1 mL, mouse plasma
Procedure: The objective of this study was to determine the plasma pharmacokinetic (PK) profile of test article cannabidiol (CBD) following the administration of a single topical dose to CD-1 mice. The work was conducted at Alliance Pharma with a title of In-life Study 1901002-01. Although the in-life study was not intended to be conducted in compliance with Good Laboratory Practice regulations, the study was conducted in accordance with Alliance Pharma's IACUC (Institutional Animal Care and Use Committee) Protocol No. 2016-02_V4 and Alliance Pharma's standard operating procedures (SOPs). In addition, the pharmacokinetic analyses of mouse plasma samples were conducted in accordance with Alliance Pharma SOPs.
A total of 72 mouse (CD-1) plasma samples were transferred from Alliance Pharma's in-life facility located in Malvern, Pa. to the Bioanalytical department for pharmacokinetic analysis. The concentration of CBD in these 72 plasma samples was measured using high-performance liquid chromatography (HPLC) with tandem mass spectrometry (MS/MS) detection.
Test Article: The dose gels for test article CBD were provided by Ampersand Biopharma dba Dyve Biosciences (Thousand Oakes, Calif.), prior to the start of this study and stored at room temperature.
In-life Study Design: In-life Study 1901002-01 was performed at the in-life testing facility at Alliance Pharma. Four (4) groups of 21 CD-1 mice each (84 total) were administered a single topical dose of CBD. Mice in Group 1 were administered Formulation A at a strength of 2.5% CBD. Mice in Group 2 were administered Formulation B at the same strength of 2.5% CBD. Mice in Group 3 were administered Formulation C at a strength of 5% CBD, and mice in Group 4 were administered Formulation C at a strength of 2.5% CBD. The treatment scheme is summarized below.
Animals in each group received topical administration of either 2.5% o 5% CBD using a 1 ml syringe to draw up exactly 100 μl. Compound was applied in the shaved area only. Each group received a different formulation of the compound.
Sample Collection, Processing, and Shipment: Blood samples were collected at the in-life facility at the following time points: 0.25, 0.5, 1, 2, 4, and 8 hours post-dose from 72 mice in Groups 1 through 4 (18 from each treatment group). Target volume was less than or equal to 0.2 ml. The blood was collected via trunk puncture into tubes using K2 EDTA as an anticoagulant. The collected blood samples were kept on wet ice before being centrifuged. Blood samples were centrifuged as soon as possible after blood collection at approximately 10,000 rpm for about 10 minutes to separate the plasma. Approximately 0.2 mL of each plasma sample was transferred into labeled Eppendorf tubes. Each tube was stored in a freezer set to −20° C. or lower. No blood was collected from 12 (3 from each treatment group) of the 84 mice enrolled in the in-life study; thus, the total number of plasma samples that were transferred to the Alliance Pharma Bioanalytical department for bioanalysis was 72.
Assay Procedures: For analysis of CBD, a 25-μL aliquot of each study sample was mixed with 25 μL of acetonitrile/water (50:50, v/v). Samples were then extracted by protein precipitation using acetonitrile containing the internal standard, tolbutamide (25 ng/mL). A portion of the supernatant was diluted in deionized water and used for the analysis of CBD.
Preparation of Standards and Quality Controls: Calibration standards of CBD mouse plasma samples were prepared in acetonitrile/water (50:50, v/v) at concentrations of 1, 2, 20, 200, 500, 1000, 1800, and 2000 ng/mL. The low quality control (LQC), medium quality control (MQC), and high quality control (HQC) were prepared in blank mouse plasma at concentrations of 3, 150, and 1500 ng/mL, respectively. A dilution quality control (DQC) was prepared at a concentration of 10,000 ng/mL and used in Batch 1.
Sample Analyses: Study samples were analyzed using a bioanalytical method qualified by Alliance Pharma. […]

[1] = Group 1: AEM.CBD.006 Formulation A 2.5% CBD, mean dose 78.69 mg/kg
[2] = Group 2: AEM.CBD.007 Formulation B 2.5% CBD, mean dose 76.61 mg/kg
[3] = Group 3: KBM.CBD.010 Formulation C 5% CBD, mean dose 155.24 mg/kg
[4] = Group 4: KBM.CBD.011 Formulation C 2.5% CBD, mean dose 75.76 mg/kg

`C=C(C)[C@@H]1CCC(C)=C[C@H]1c1c(O)cc(CCCCC)cc1O` [Cannabidiol] showed an AUC(0-inf) [1] of 1860 ng·h/mL, an AUC(0-t) [1] of 1760 ng·h/mL and a Cmax [1] of 427 ng/mL. It also gave a Tmax [1] of 2 h, a half-life [1] of 1.78 h and an AUC(0-inf) [2] of 1650 ng·h/mL. The AUC(0-t) [2] was 1560 ng·h/mL, the Cmax [2] was 360 ng/mL and the Tmax [2] was 2 h. It also gave a half-life [2] of 1.7 h, an AUC(0-inf) [3] of 3530 ng·h/mL and an AUC(0-t) [3] of 3070 ng·h/mL. For the same molecule, the Cmax [3] was 602 ng/mL, the Tmax [3] was 4 h and the AUC(0-inf) [4] was 1510 ng·h/mL. For the same molecule, the AUC(0-t) [4] was 1410 ng·h/mL, the Cmax [4] was 332 ng/mL and the Tmax [4] was 1 h. For the same molecule, the half-life [4] was 1.92 h.
